# pIC50: −log10 of the molar value.
# Tests used:
# HCT116 MTAP-/- = test: Inhibition of cellular proliferation, 4 days, Cell Titer Glo, HCT116 MTAP-/-; format: cell-based; conditions: Homo sapiens, HCT-116, 96 h, IC50 score, read-out: 4 Day Relative Growth Inhibition (MTAP −/−)
# How it was run: (§1)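 Isogenic human colon carcinoma lines differing only in MTAP status, plated 24 h before dosing, then exposed for 4 days at 37 °C/5% CO2 to a 10-point 3-fold dilution series (0.2% DMSO final). Read-out is Cell Titer Glo ATP luminescence, blank-subtracted and normalised to in-plate DMSO control, plotted as % proliferation change versus log molar concentration.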
# MAT2A homodimer = target: T1, MAT2A homodimer (Homo sapiens, UniProt P31153); test: Biochemical assay: inhibition of recombinant MAT2A homodimer (phosphate release, PiColorLock Gold); conditions: MAT2A IC50 score; read-out: Enzyme Inhibition
# T1 construct: inferred from Ni sepharose purification and imidazole elution; made in house; host or cells: Sf9 insect cells, recombinant baculovirus (Bac to Bac, pFASTBAC1 vector)
# T1 sequence (P31153 whole entry): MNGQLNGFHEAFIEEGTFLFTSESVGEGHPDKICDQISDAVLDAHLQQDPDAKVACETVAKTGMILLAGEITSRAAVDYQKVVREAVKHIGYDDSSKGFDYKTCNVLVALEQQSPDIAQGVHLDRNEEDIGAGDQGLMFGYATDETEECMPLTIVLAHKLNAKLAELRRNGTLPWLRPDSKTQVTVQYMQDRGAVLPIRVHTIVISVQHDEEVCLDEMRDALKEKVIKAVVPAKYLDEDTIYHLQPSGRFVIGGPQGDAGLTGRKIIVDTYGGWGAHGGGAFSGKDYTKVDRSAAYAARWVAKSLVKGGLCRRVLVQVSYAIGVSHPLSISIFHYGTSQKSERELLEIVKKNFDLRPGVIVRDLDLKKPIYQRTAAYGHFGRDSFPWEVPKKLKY
# How it was run: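 Baculovirus/Sf9-expressed, Ni-purified MAT2A at 4 μg/mL in pH 8.0 Tris/KCl/MgCl2/EDTA/BSA buffer, preincubated with compound 60 min at 25 °C. Started with ATP and L-methionine substrate mix (500 μM and 40 μM, stock in mix), 60 min at 25 °C; released phosphate by PiColorLock Gold against a phosphate standard curve.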
# [1] = tested on: SAM in HCT116 human colon carcinoma cell line with deleted MTAP gene; test: Cellular assay of target engagement (SAM): SAM level by LC-MS/MS after 72 hrs; format: cell-based; conditions: HCT-116, IC50 score, read-out: Cell 72 h SAM Inhibition (MTAP −/−)
# How it was run: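 MTAP-deleted HCT116 cells were seeded, then exposed 24 h later to a 10-point 3-fold compound dilution series for 72 h at 37 °C/5% CO2. They were lysed in cold 80% methanol/acetic acid containing d3-SAM internal standard. SAM was quantified by LC-MS/MS (MRM, m/z 399.2→250.1).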
# HCT116 MTAP +/+ = test: Inhibition of cellular proliferation, 4 days, Cell Titer Glo, HCT116 MTAP+/+; format: cell-based; conditions: Homo sapiens, HCT-116, 96 h, IC50 score, read-out: 4 Day Relative Growth Inhibition (MTAP +/+)
# How it was run: as §1
SMILES,pIC50 (HCT116 MTAP-/-),pIC50 (MAT2A homodimer),pIC50 [1],pIC50 (HCT116 MTAP +/+)
COc1ccc(-n2c(=O)c(-c3ccc4[nH]cnc4c3)cc3cnc(NCC(F)(F)F)nc32)cc1 [Example 174],≤ 6.00,> 7.00,> 7.00,≤ 6.00
[2H]C([2H])([2H])Oc1ccc(-n2c(=O)c(-c3ccc4nn(C)cc4c3)cc3ncc(OCC(F)F)nc32)cc1 [Example 344],> 7.00,> 7.00,> 7.00,≤ 6.00
"COc1ccc(-n2c(=O)c(-c3ccc4nncn4c3)cc3ccc(OCC(F)F)nc32)cc1 [Example 194, 3-([1,2,4]triazolo[4,3-a]pyridin-6-yl)-7-(2,2-difluoroethoxy)-1-(4-methoxyphenyl)-1,8-naphthyridin-2(1H)-one]",> 7.00,> 7.00,> 7.00,6.00 to 7.00
COc1ccc(-n2c(=O)c(-c3ccc4ncoc4c3)cc3cnc(NCC(F)(F)F)nc32)cc1 [Example 189],6.00 to 7.00,> 7.00,6.00 to 7.00,≤ 6.00
CCOc1ccc2nc(-c3ccc(OC)cc3)c(=O)n(-c3ccc(OC(F)F)cc3)c2n1 [Example 223],6.00 to 7.00,> 7.00,6.00 to 7.00,≤ 6.00
CCOc1ccc2cc(-c3ccc4nn(C)cc4c3)c(=O)n(-c3ccc(OC(F)F)cc3)c2n1 [Example 140],> 7.00,> 7.00,> 7.00,6.00 to 7.00
"CCOc1ccc2nc(-c3ccc4nn(C)cc4c3)c(=O)n(-c3ccc(Cl)cc3)c2n1 [Example 222, 4-(4-chlorophenyl)-6-ethoxy-2-(2-methyl-2H-indazol-5-yl)pyrido[2,3-b]pyrazin-3(4H)-one]",> 7.00,> 7.00,> 7.00,≤ 6.00

# Continued, values first:
pIC50 (HCT116 MTAP-/-),pIC50 (MAT2A homodimer),pIC50 [1],pIC50 (HCT116 MTAP +/+),SMILES
6.00 to 7.00,> 7.00,6.00 to 7.00,≤ 6.00,CCOc1ccc2cc(-c3ccnc(OC)c3)c(=O)n(-c3ccc(Cl)cc3)c2n1 [Example 202]
> 7.00,> 7.00,> 7.00,6.00 to 7.00,CNc1ccc(-n2c(=O)c(-c3ccc4nn(C)cc4c3)cc3ccc(OCC(F)F)nc32)cn1 [Example 147]
> 7.00,> 7.00,> 7.00,≤ 6.00,CCNc1ccc2cc(-c3ccc4nn(C)cc4c3)c(=O)n(-c3ccc(C4CC4)nc3)c2n1 [Example 308]
> 7.00,> 7.00,> 7.00,6.00 to 7.00,[2H]C([2H])([2H])Oc1ccc(-n2c(=O)c(-c3ccc4nn(C)cc4c3)cc3ccc(OCC)nc32)cc1 [Example 148]
> 7.00,> 7.00,> 7.00,6.00 to 7.00,[2H]C([2H])([2H])Oc1ccc(-n2c(=O)c(-c3ccc4nn(C)cc4c3)nc3ccc(OCC)nc32)cc1 [Example 324]
6.00 to 7.00,> 7.00,> 7.00,≤ 6.00,Cn1cc2cc(-c3cc4ccc(OCC(F)F)nc4n(-c4ccc5scnc5c4)c3=O)ccc2n1 [Example 169]
6.00 to 7.00,> 7.00,6.00 to 7.00,≤ 6.00,COc1ccc(-n2c(=O)c(-c3cnn(C)c3)cc3cnc(NCC(F)(F)F)nc32)cc1 [Example 187]
> 7.00,> 7.00,> 7.00,≤ 6.00,"CCCc1ccc2cc(-c3ccc4nn(C)cc4c3)c(=O)n(-c3ccc(Cl)cc3)c2n1 [Example 236, 1-(4-chlorophenyl)-3-(2-methyl-2H-indazol-5-yl)-7-propyl-1,8-naphthyridin-2(1H)-one]"
6.00 to 7.00,> 7.00,> 7.00,≤ 6.00,CCOc1ccc2cc(-c3ccc(OC)cc3)c(=O)n(-c3ccc(NC)nc3)c2n1 [Example 159]
> 7.00,> 7.00,> 7.00,≤ 6.00,CCNc1ccc2nc(-c3ccc4nn(C)cc4c3)c(=O)n(-c3ccc(OC)cc3)c2n1 [Example 341]
